Experiment [1] concerns the target T1, STAT5b (SH2 domain) (Homo sapiens, UniProt P51692).
T1 sequence (P51692 1-787 limits assumed): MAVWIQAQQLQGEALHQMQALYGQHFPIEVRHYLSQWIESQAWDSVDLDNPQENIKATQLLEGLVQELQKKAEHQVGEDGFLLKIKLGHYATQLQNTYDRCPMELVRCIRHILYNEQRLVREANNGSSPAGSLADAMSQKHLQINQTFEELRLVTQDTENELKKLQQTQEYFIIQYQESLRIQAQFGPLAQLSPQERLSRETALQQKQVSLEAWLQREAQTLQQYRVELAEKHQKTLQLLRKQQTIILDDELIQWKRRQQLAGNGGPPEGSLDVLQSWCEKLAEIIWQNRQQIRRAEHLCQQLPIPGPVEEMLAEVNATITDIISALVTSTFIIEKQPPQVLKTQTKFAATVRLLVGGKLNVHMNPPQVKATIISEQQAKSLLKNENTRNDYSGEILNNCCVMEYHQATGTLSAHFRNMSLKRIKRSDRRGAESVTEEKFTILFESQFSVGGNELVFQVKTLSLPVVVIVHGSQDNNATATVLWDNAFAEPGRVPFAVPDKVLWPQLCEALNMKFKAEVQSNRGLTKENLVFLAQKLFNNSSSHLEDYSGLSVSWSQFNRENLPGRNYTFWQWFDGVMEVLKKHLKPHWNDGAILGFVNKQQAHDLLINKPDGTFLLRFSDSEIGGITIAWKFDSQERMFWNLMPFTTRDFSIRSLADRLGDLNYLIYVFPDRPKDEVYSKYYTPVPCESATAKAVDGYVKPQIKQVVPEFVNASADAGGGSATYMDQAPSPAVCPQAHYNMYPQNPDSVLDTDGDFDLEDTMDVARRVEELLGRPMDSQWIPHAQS
Briefly: competitive fluorescence polarization assay. The experiment is classed as binding. (Fluorescence polarisation rises when a labelled molecule tumbles more slowly, as on binding a larger partner.)

Experiment [2] addresses T2, STAT5a (SH2 domain) (Homo sapiens, UniProt P42229).
T2 sequence (P42229 1-794): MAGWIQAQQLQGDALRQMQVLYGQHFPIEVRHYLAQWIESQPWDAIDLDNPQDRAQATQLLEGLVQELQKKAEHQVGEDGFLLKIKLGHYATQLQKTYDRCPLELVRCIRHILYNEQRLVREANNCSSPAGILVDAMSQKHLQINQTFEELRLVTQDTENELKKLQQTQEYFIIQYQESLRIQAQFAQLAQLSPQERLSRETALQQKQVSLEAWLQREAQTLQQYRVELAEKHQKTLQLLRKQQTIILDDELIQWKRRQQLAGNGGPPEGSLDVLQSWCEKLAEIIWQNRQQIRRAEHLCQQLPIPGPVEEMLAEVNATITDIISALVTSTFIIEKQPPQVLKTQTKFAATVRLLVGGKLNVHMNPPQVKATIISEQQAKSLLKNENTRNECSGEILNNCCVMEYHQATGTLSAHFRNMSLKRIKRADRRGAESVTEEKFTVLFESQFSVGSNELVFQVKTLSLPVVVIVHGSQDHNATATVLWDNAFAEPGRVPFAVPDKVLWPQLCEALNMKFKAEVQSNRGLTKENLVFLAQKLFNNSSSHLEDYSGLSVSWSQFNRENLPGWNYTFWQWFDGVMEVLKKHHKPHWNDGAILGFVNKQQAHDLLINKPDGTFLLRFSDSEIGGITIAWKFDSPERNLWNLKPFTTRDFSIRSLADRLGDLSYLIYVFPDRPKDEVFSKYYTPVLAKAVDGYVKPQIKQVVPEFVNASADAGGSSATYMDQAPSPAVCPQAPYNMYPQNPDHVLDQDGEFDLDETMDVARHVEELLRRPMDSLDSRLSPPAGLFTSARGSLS
Briefly: competitive fluorescence polarization assay. Type of experiment: binding.

Usually Ki stands for a measure of affinity in units of concentration, obtained from inhibition or displacement. A low value points to tighter binding.

For the compound `O=C(NCCc1ccc(OP(=O)(O)O)c(OP(=O)(O)O)c1)OCC1c2ccccc2-c2ccccc21` [compound 7, Fmoc-protected dopamine bisphosphate], the Ki in experiment [1] worked out at 450 ± 40 nM; in experiment [2], 16 ± 0.8 µM.
Take `COC(=O)[C@H](Cc1ccc(OP(=O)(O)O)c(OP(=O)(O)O)c1)NC(=O)OCC1c2ccccc2-c2ccccc21` [compound 8, Fmoc-protected L-Dopa methyl ester bisphosphate]: the inhibition constant (Ki) turned out to be 460 ± 80 nM in experiment [1] and 7.8 ± 1 µM in experiment [2].

Source of the values: PMC4471549 (Angewandte Chemie (International Ed. in English), 2015).
